# Assay results published in PubChem BioAssay (NCI).
#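 Step 1: Grow cells in 96-well plates. Step 2: Expose to compound for 48 hours at 5 concentrations. Step 3: Interpolate endpoints linearly; if unreached, use highest concentration. TGI is the concentration that stops growth completely.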
# Key:
# Experiment in all cases: growth of human tumour cells (NCI), 48 h
# [1] = tested on: CAKI-1 renal
# [2] = tested on: ACHN renal
# [3] = tested on: UACC-62 melanoma
# [4] = tested on: SK-OV-3 ovarian
# [5] = tested on: HOP-92 NSCLC
# [6] = tested on: OVCAR-3 ovarian
# [7] = tested on: UACC-257 melanoma
# [8] = tested on: EKVX NSCLC
# [9] = tested on: BT-549 breast
# [10] = tested on: RPMI-8226 leukemia
# [11] = tested on: OVCAR-4 ovarian
# [12] = tested on: SF-539 CNS
# [13] = tested on: MCF7 breast
# [14] = tested on: SK-MEL-2 melanoma
# [15] = tested on: SF-295 CNS
# [16] = tested on: A549 NSCLC
# [17] = tested on: A498 renal
# [18] = tested on: IGROV1 ovarian
# [19] = tested on: HOP-62 NSCLC
# [20] = tested on: DU-145 prostate
# [21] = tested on: LOX IMVI melanoma
# [22] = tested on: NCI-H522 lung
# [23] = tested on: SR leukemia
# [24] = tested on: T-47D breast
# [25] = tested on: CCRF-CEM leukemia
# [26] = tested on: NCI-H460 lung
# [27] = tested on: HL-60(TB) leukemia
# [28] = tested on: K-562 leukemia
# [29] = tested on: KM12 colon
# [30] = tested on: M14 melanoma
# [31] = tested on: HCT-15 colon
# [32] = tested on: MDA-MB-435
# [33] = tested on: HCT-116 colon
# [34] = tested on: PC-3 prostate
# [35] = tested on: TK-10 renal
# [36] = tested on: HT29 colon
# [37] = tested on: SF-268 CNS
# [38] = tested on: SK-MEL-28 melanoma
# [39] = tested on: SW-620 colon
# [40] = tested on: NCI-H226 lung
# [41] = tested on: MDA-N
# [42] = tested on: HS 578T breast
# [43] = tested on: SK-MEL-5 melanoma
# [44] = tested on: HCC-2998 colon
# [45] = tested on: SNB-19 CNS
# [46] = tested on: 786-0 renal
# [47] = tested on: MOLT-4 leukemia
# [48] = tested on: SN12C renal
# [49] = tested on: U251 CNS
# [50] = tested on: RXF 393 renal
# [51] = tested on: COLO 205 colon
# [52] = tested on: MALME-3M melanoma
# [53] = tested on: MDA-MB-231 breast
# [54] = tested on: NCI-H23 lung
# [55] = tested on: OVCAR-5 ovarian
# [56] = tested on: UO-31 renal
# [57] = tested on: NCI/ADR-RES ovarian
# [58] = tested on: OVCAR-8 ovarian
smiles,measurement,setting,value
CSC1=C(C#N)C(=O)N(c2ccc(C)cc2)C(=O)C1C#N (centres undefined),TGI,[1],> 100 µM
same,TGI,[2],> 100 µM
same,TGI,[3],> 100 µM
same,TGI,[4],> 100 µM
same,TGI,[5],82 µM
same,TGI,[6],> 100 µM
same,TGI,[7],> 100 µM
same,TGI,[8],> 100 µM
same,TGI,[9],> 100 µM
same,TGI,[10],> 100 µM
same,TGI,[11],> 100 µM
same,TGI,[12],> 100 µM
same,TGI,[13],> 100 µM
same,TGI,[14],> 100 µM
same,TGI,[15],> 100 µM
same,TGI,[16],> 100 µM
same,TGI,[17],> 100 µM
same,TGI,[18],> 100 µM
same,TGI,[19],> 100 µM
same,TGI,[20],> 100 µM
same,TGI,[21],> 100 µM
same,TGI,[22],> 100 µM
same,TGI,[23],> 100 µM
same,TGI,[24],> 100 µM
same,TGI,[25],> 100 µM
same,TGI,[26],> 100 µM
same,TGI,[27],> 100 µM
same,TGI,[28],> 100 µM
same,TGI,[29],> 100 µM
same,TGI,[30],> 100 µM
same,TGI,[31],> 100 µM
same,TGI,[32],> 100 µM
same,TGI,[33],> 100 µM
same,TGI,[34],> 100 µM
same,TGI,[35],> 100 µM
same,TGI,[36],> 100 µM
same,TGI,[37],> 100 µM
same,TGI,[38],> 100 µM
same,TGI,[39],> 100 µM
same,TGI,[40],> 100 µM
same,TGI,[41],> 100 µM
same,TGI,[42],> 100 µM
same,TGI,[43],> 100 µM
same,TGI,[44],> 100 µM
same,TGI,[45],> 100 µM
same,TGI,[46],> 100 µM
same,TGI,[47],> 100 µM
same,TGI,[48],> 100 µM
same,TGI,[49],> 100 µM
same,TGI,[50],> 100 µM
same,TGI,[51],> 100 µM
same,TGI,[52],> 100 µM
same,TGI,[53],> 100 µM
same,TGI,[54],> 100 µM
same,TGI,[55],> 100 µM
same,TGI,[56],> 100 µM
COC(=O)[C@@H](OC(C)=O)[C@@H](OC(C)=O)c1nnc2ccc(Cl)nn12,TGI,[1],> 100 µM
same,TGI,[2],> 100 µM
same,TGI,[3],> 100 µM
same,TGI,[4],> 100 µM
same,TGI,[6],> 100 µM
same,TGI,[7],> 100 µM
same,TGI,[8],> 100 µM
same,TGI,[9],> 100 µM
same,TGI,[10],> 100 µM
same,TGI,[11],> 100 µM
same,TGI,[12],> 100 µM
same,TGI,[13],> 100 µM
same,TGI,[14],> 100 µM
same,TGI,[15],> 100 µM
same,TGI,[16],> 100 µM
same,TGI,[17],> 100 µM
same,TGI,[18],> 100 µM
same,TGI,[19],> 100 µM
same,TGI,[20],> 100 µM
same,TGI,[21],> 100 µM
same,TGI,[22],95.3 µM
same,TGI,[24],> 100 µM
same,TGI,[25],> 100 µM
same,TGI,[57],> 100 µM
same,TGI,[26],> 100 µM
same,TGI,[27],> 100 µM
same,TGI,[29],> 100 µM
same,TGI,[30],> 100 µM
same,TGI,[31],> 100 µM
same,TGI,[32],> 100 µM
same,TGI,[33],> 100 µM
same,TGI,[34],> 100 µM
same,TGI,[35],> 100 µM
same,TGI,[36],> 100 µM
same,TGI,[37],> 100 µM
same,TGI,[38],> 100 µM
same,TGI,[39],> 100 µM
same,TGI,[41],> 100 µM
same,TGI,[42],> 100 µM
same,TGI,[58],> 100 µM
same,TGI,[43],> 100 µM
same,TGI,[44],> 100 µM
same,TGI,[45],> 100 µM
same,TGI,[46],> 100 µM
same,TGI,[47],> 100 µM
same,TGI,[48],> 100 µM
same,TGI,[49],> 100 µM
same,TGI,[50],> 100 µM
same,TGI,[51],> 100 µM
same,TGI,[52],> 100 µM
same,TGI,[53],> 100 µM
same,TGI,[54],> 100 µM
same,TGI,[55],> 100 µM
